Measurements published in patent US10555987B2, “GHRH agonists for the treatment of ischemic disorders” (UNIVERSITY OF MIAMI, priority 2012, dated 2020).
“Also recorded” adds a separate entry of the source. Non-standard residues stand in square brackets, D forms with d. Residues, ends and D or L forms follow the SMILES beside them. *: point of attachment. Phe(F5) = N[C@@H](Cc1c(F)c(F)c(F)c(F)c1F)C(=O)O; Desaminotyrosyl = O=C(CCc1ccc(O)cc1)*; NMeY = CN[C@@H](Cc1ccc(O)cc1)C(=O)O; Agmatine = N=C(N)NCCCCN*; Nle = CCCC[C@H](N)C(=O)O; Orn = NCCC[C@H](N)C(=O)O; Abu = CC[C@H](N)C(=O)O; GABA = NCCCC(=O)O

Key:
[1] = test system: myocardial infarction (Fisher-344 rats); assay: Morphometric analysis of infarct size, rat MI model (Example 13); type: in vivo; details: 50 μg/kg s.c. twice daily for 4 weeks; mean ± SEM
Method: (§1) Myocardial infarction (MI) was induced by permanent ligation of the left coronary artery in female 6-month-old Fisher-344 rats. Animals were randomly assigned to receive placebo (DMSO+propylene glycol) or one of the GHRH-agonists (JI-38, MR-356/P-20356, MR-409/P-27409, all 50 μg/kg), starting 4 weeks post-MI. All treatment was given subcutaneously twice daily for 4 weeks.
Rat hearts were processed using routine histological procedures. Samples were fixed in formalin.
(§2) Paraffin sections were deparaffinized and rehydrated by immersion in xylene followed by a graded series of ethanol. Antigen retrieval was performed by a heat-induced method with citrate buffer (Dako, Carpinteria, Calif.). After blocking with 10% normal donkey serum, sections were incubated with a primary antibody at 37° C. for 1 hour, followed by application of secondary antibody. Omission of the primary antibodies on parallel sections was used as negative control. Nuclei were counterstained with DAPI (Invitrogen, Carlsbad, Calif.). The total numbers of positively-stained cells (c-kit, CD45, phospho-histone H3 [pH3]) were quantified per slide to calculate the number of cells per section on each sample. Morphometric analysis was performed using Adobe Photoshop CS3 (San Jose, Calif.).

[2] = test system: myocardial infarction (Fisher-344 rats); assay: Immunostaining of heart tissue (pH3, c-kit, arterioles), rat MI model (Example 13); type: in vivo
Method: as §1, §2
Heart sections were co-stained with isolectin (endothelial cell marker) and vascular smooth muscle (SMA22a) to identify arterioles which play a crucial role in cardiac repair. […] An inverse correlation between number of arterioles and infarct size was observed (FIG. 5C).

[3] = test system: myocardial infarction (Fischer 344 rats); assay: Echocardiography in rat MI model, treatment from 2 hours post-surgery (Example 14); type: in vivo; details: echocardiographic measurements at day 2 post-MI
Method: (§3) MI was induced in female 6-month-old Fischer 344 rats by permanent ligation of left ventricular (LV) anterior descending coronary artery. Animals were randomly assigned to receive placebo or one of the following GHRH agonists (MR-356, MR-361, MR-367, MR-403, MR-404, MR-409 and MR-502) starting 2 hours post-surgery. All treatment (50 μg/kg) was given subcutaneously twice daily for 4 weeks. The Institutional Animal Care and Use committee of the University of Miami approved all protocols and experimental procedures.
Longitudinal evaluation of LV remodeling was obtained by echocardiographic measurements between baseline and 4 weeks following MI. Echocardiographic assessments were performed in anesthetized rats (1-2% isoflurane inhalation) using a Vevo-770 echocardiogram (Visual Sonics Inc., Toronto, Ontario, Canada) equipped with 25 MHz transducer. Cardiac dimensions were recorded from M-mode images using averaged measurements from 3 to 5 consecutive cardiac cycles. LV end-diastolic and end-systolic volumes and ejection fraction (EF) were calculated from bi-dimensional long-axis parasternal views taken through the infarcted area. All images were analyzed using Vevo 770 3.0.0 software (Visual Sonics).

[4] = test system: myocardial infarction (Fischer 344 rats); assay: Morphometric analysis, percentage of infarcted myocardium (Example 14); type: in vivo, rat; details: vs. placebo, FIG. 8
Method: as §3
Slides were prepared with H&E and Masson's trichrome stain to assess cardiac structure and the presence and extent of myocardial scar, respectively. The percentage of infarcted myocardium was calculated.

GHRH receptor = target: T1, GHRH receptor (Homo sapiens, UniProt Q02643); assay: GHRH receptor binding, competition with 125I-labeled JV-1-42, human pituitary membrane homogenates (Table 5); design: Normal human pituitaries were purchased from the National Hormone and Peptide Program; tissue National Hormone and Peptide Program (A.F. Parlow, Harbor-UCLA Medical Center, Torrance, Calif.); host or cells: normal human pituitary, membrane fraction; details: for Relative affinity (Binding potency) vs GHRH: GHRH(1-29) = 1, Table 5; for Relative affinity (Binding potency) vs JI-38: JI-38 = 1, Table 5
T1 sequence (Q02643 23-423): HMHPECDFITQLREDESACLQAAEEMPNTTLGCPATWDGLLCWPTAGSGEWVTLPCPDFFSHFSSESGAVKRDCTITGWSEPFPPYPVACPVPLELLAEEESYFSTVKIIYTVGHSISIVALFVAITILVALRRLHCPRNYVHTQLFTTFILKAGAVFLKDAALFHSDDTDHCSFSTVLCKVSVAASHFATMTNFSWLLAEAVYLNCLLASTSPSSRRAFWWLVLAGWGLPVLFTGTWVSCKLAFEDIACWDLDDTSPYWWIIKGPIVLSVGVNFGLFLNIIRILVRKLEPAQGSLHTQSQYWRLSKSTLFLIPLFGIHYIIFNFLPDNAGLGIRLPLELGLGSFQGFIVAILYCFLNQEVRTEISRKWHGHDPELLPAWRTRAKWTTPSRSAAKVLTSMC
Method: Normal human pituitaries were purchased from the National Hormone and Peptide Program (A.F. Parlow, Los Angeles, County Harbor-UCLA Medical Center, Torrance, Calif.). Briefly, in competitive binding analysis, ^125I-labeled JV-1-42 ([…]) was displaced by GHRH agonists at 10^−6 to 10^−12 M.
The final binding affinities were expressed as IC50 values and were calculated by using the LIGAND PC computerized curve-fitting program of Munson and Rodbard as modified by McPherson.

GH release = assay: In vivo endocrine activity, GH release after intravenous administration (Table 8); details: rat; for Stimulation of growth hormone levels after intravenous administration (in words): i.v.; for GH releasing potency in vivo relative to JI-38 (=1): i.v. injection
[5] = 50 μg/kg s.c. twice daily for 4 weeks, mean ± SEM

Row | Compound | MI size (%) [1] [%] | c-kit (positive cells in the heart) [2, 5] | phospho H3 (positive cells in the heart) [2, 5] | number of arterioles ([2]; isolectin / SMA22a co-staining of heart sections) | EF at day 2 post-MI [3] | infarct size (MI %) [4] | IC50 (GHRH receptor; 125I-JV-1-42, human pituitary membranes, Table 5) [nM] | Relative affinity (Binding potency) vs GHRH (GHRH receptor) | Relative affinity (Binding potency) vs JI-38 (GHRH receptor) | Stimulation of growth hormone levels after intravenous administration (in words) (GH release) | GH releasing potency in vivo relative to JI-38 (=1) (GH release; 15 min after) | GH releasing potency in vivo relative to JI-38 (=1) (GH release; 30 min after) | GH releasing potency in vivo relative to JI-38 (=1) (GH release; 5 min after)
1 | CCCC[C@H](NC(=O)[C@@H](NC(=O)[C@H](CC(=O)O)NC(=O)[C@H](CCC(N)=O)NC(=O)[C@H](CC(C)C)NC(=O)[C@H](CC(C)C)NC(=O)[C@H](CCCN)NC(=O)[C@H](CCCNC(=N)N)NC(=O)[C@H](C)NC(=O)[C@H](CO)NC(=O)[C@H](CC(C)C)NC(=O)[C@H](CCC(N)=O)NC(=O)[C@H](CC)NC(=O)[C@H](CC(C)C)NC(=O)[C@@H](NC(=O)[C@H](CCCN)NC(=O)[C@H](CCCNC(=N)N)NC(=O)[C@H](Cc1ccc(O)cc1)NC(=O)[C@H](CO)NC(=O)[C@H](CCC(N)=O)NC(=O)[C@@H](NC(=O)[C@H](Cc1ccccc1)NC(=O)[C@@H](NC(=O)[C@H](C)NC(=O)[C@H](CC(=O)O)NC(=O)[C@H](C)NC(=O)CCc1ccc(O)cc1)[C@@H](C)CC)[C@@H](C)O)C(C)C)[C@@H](C)CC)C(=O)N[C@@H](CC(=O)O)C(=O)NCCCCNC(=N)N [JI-38, [Dat^1, Gln^8, Orn^12,21, Abu^15, Nle^27, Asp^28, Agm^29]hGHRH(1-29)NH2, reference compound] (Desaminotyrosyl-ADAIFTQSYR[Orn]VL[Abu]QLSAR[Orn]LLQDI[Nle]D-Agmatine) | 42 ± 1.3 | 53 ± 6.7 | 71 ± 9.2 | significantly increased | slightly better preserved | significantly attenuated; also recorded: substantial reductions | 1.71 | 2.4 | 1 |  |  |  | 
2 | CCCC[C@H](NC(=O)[C@@H](NC(=O)[C@H](CC(=O)O)NC(=O)[C@H](CCC(N)=O)NC(=O)[C@H](CC(C)C)NC(=O)[C@H](CC(C)C)NC(=O)[C@H](CCCN)NC(=O)[C@H](CCCNC(=N)N)NC(=O)[C@H](C)NC(=O)[C@H](CO)NC(=O)[C@H](CC(C)C)NC(=O)[C@H](CCC(N)=O)NC(=O)[C@H](CC)NC(=O)[C@H](CC(C)C)NC(=O)[C@@H](NC(=O)[C@H](CCCN)NC(=O)[C@H](CCCNC(=N)N)NC(=O)[C@H](Cc1ccc(O)cc1)NC(=O)[C@H](CO)NC(=O)[C@H](CCC(N)=O)NC(=O)[C@@H](NC(=O)[C@H](Cc1ccccc1)NC(=O)[C@@H](NC(=O)[C@H](C)NC(=O)[C@H](CC(=O)O)NC(=O)[C@@H](C)NC(=O)[C@H](Cc1ccc(O)cc1)NC)[C@@H](C)CC)[C@@H](C)O)C(C)C)[C@@H](C)CC)C(=O)N[C@@H](CC(=O)O)C(=O)N[C@@H](CCCNC(=N)N)C(=O)NC [Peptide P-27403, [N—Me-Tyr^1, D-Ala^2, Gln^8, Orn^12, Abu^15, Orn^21, Nle^27, Asp^28]hGHRH(1-29)NH—CH3] (H-[NMeY][dA]DAIFTQSYR[Orn]VL[Abu]QLSAR[Orn]LLQDI[Nle]DR-NHMe) |  |  |  |  |  |  |  |  |  | most potent | 5.01 | 4.01 | 
3 | CCCC[C@H](NC(=O)[C@@H](NC(=O)[C@H](CC(=O)O)NC(=O)[C@H](CCC(N)=O)NC(=O)[C@H](CC(C)C)NC(=O)[C@H](CC(C)C)NC(=O)[C@H](CCCN)NC(=O)[C@H](CCCNC(=N)N)NC(=O)[C@H](C)NC(=O)[C@H](CO)NC(=O)[C@H](CC(C)C)NC(=O)[C@H](CCC(N)=O)NC(=O)[C@H](CC)NC(=O)[C@H](CC(C)C)NC(=O)[C@@H](NC(=O)[C@H](CCCN)NC(=O)[C@H](CCCNC(=N)N)NC(=O)[C@H](Cc1ccc(O)cc1)NC(=O)[C@H](CO)NC(=O)[C@H](CC(N)=O)NC(=O)[C@@H](NC(=O)[C@H](Cc1c(F)c(F)c(F)c(F)c1F)NC(=O)[C@@H](NC(=O)[C@H](C)NC(=O)[C@H](CC(=O)O)NC(=O)[C@@H](C)NC(=O)CCc1ccc(O)cc1)[C@@H](C)CC)[C@@H](C)O)C(C)C)[C@@H](C)CC)C(=O)N[C@@H](CO)C(=O)N[C@@H](CCCNC(=N)N)C(=O)NCCCC(N)=O [Peptide P-25502, [Dat^1, D-Ala^2, Fpa5^6, Orn^12, Abu^15, Orn^21, Nle^27, Gab^30]hGHRH(1-30)NH2] (Desaminotyrosyl-[dA]DAI[Phe(F5)]TNSYR[Orn]VL[Abu]QLSAR[Orn]LLQDI[Nle]SR[GABA]-NH2) |  |  |  |  |  |  |  | 58.0 | 24.4 | most potent | 5.40 | 5.83 | 6.76
4 | CCCC[C@H](NC(=O)[C@@H](NC(=O)[C@H](CC(=O)O)NC(=O)[C@H](CCC(N)=O)NC(=O)[C@H](CC(C)C)NC(=O)[C@H](CC(C)C)NC(=O)[C@H](CCCN)NC(=O)[C@H](CCCNC(=N)N)NC(=O)[C@H](C)NC(=O)[C@H](CO)NC(=O)[C@H](CC(C)C)NC(=O)[C@H](CCC(N)=O)NC(=O)[C@H](CC)NC(=O)[C@H](CC(C)C)NC(=O)[C@@H](NC(=O)[C@H](CCCN)NC(=O)[C@H](CCCNC(=N)N)NC(=O)[C@H](Cc1ccc(O)cc1)NC(=O)[C@H](CO)NC(=O)[C@H](CCC(N)=O)NC(=O)[C@@H](NC(=O)[C@H](Cc1ccccc1)NC(=O)[C@@H](NC(=O)[C@H](C)NC(=O)[C@H](CC(=O)O)NC(=O)[C@@H](C)NC(=O)[C@H](Cc1ccc(O)cc1)NC)[C@@H](C)CC)[C@@H](C)O)C(C)C)[C@@H](C)CC)C(=O)N[C@@H](CC(=O)O)C(=O)NCCCCNC(=N)N [Peptide P-20361, [N—Me-Tyr^1, D-Ala^2, Gln^8, Orn^12, Abu^15, Orn^21, Nle^27, Asp^28, Agm^29] hGHRH (1-29)NH2] (H-[NMeY][dA]DAIFTQSYR[Orn]VL[Abu]QLSAR[Orn]LLQDI[Nle]D-Agmatine) |  |  |  |  | slightly better preserved |  |  |  |  |  |  |  | 
